In US20190284136A1, “INDOLINE DERIVATIVES” (ViiV HEALTHCARE UK LIMITED, priority 2016, published 2019):

These compounds were tested on HIV (assay: Table 1 IC50 of the examples (assay method not given; patent concerns inhibiting HIV replication)). Conditions: Human immunodeficiency virus 1.
Format: cell-based

Compound	IC50 [nM]
COc1cc(F)ccc1C(=O)N1CCc2c1cc(C)c([C@H](OC(C)(C)C)C(=O)O)c2-c1ccc(C)cc1 [Example 21, (S)-2-(tert-Butoxy)-2-(1-(4-fluoro-2-methoxybenzoyl)-6-methyl-4-(p-tolyl)indolin-5-yl)acetic acid]	9
Cc1cc2c(c(-c3cc(F)c4c(c3C)CCCO4)c1[C@H](OC(C)(C)C)C(=O)O)CCN2C(=O)c1cc(F)cc(C(F)(F)F)c1 [Example 143, (S)-2-(tert-Butoxy)-2-((R)-1-(3-fluoro-5-(trifluoromethyl)benzoyl)-4-(8-fluoro-5-methylchroman-6-yl)-6-methylindolin-5-yl)acetic acid]	14
Cc1cc2c(c(-c3cc(F)c4c(c3C)CCCO4)c1[C@H](OC(C)(C)C)C(=O)O)CCN2C(=O)CCc1ccccc1 (atropisomer, axis not shown) [Example 58, (S)-2-(tert-Butoxy)-2-((R)-4-(8-fluoro-5-methylchroman-6-yl)-6-methyl-1-(3-phenyl/propanoyl)indolin-5-yl)acetic acid]	41
COc1cccc(C(=O)N2CCc3c2cc(C)c([C@H](OC(C)(C)C)C(=O)O)c3-c2cc(F)c3c(c2C)CCCO3)c1 (atropisomer, axis not shown) [Example 162, (S)-2-(tert-Butoxy)-2-((R)-4-(8-fluoro-5-methylchroman-6-yl)-1-(3-methoxybenzoyl)-6-methylindolin-5-yl)acetic acid]	7
COc1ccc(C(=O)N2CCc3c2cc(C)c([C@H](OC(C)(C)C)C(=O)O)c3-c2cc(F)c3c(c2C)CCCO3)c(C)c1 (atropisomer, axis not shown) [Example 168, (S)-2-(tert-Butoxy)-2-((R)-4-(8-fluoro-5-methylchroman-6-yl)-1-(4-methoxy-2-methylbenzoyl)-6-methylindolin-5-yl)acetic acid]	13
Cc1cc2c(ccn2Cc2ccc(F)c(F)c2)c(-c2cc(F)c3c(c2C)CCCO3)c1[C@H](OC(C)(C)C)C(=O)O (atropisomer, axis not shown) [Example 198, (S)-2-(tert-Butoxy)-2-((R)-1-(3,4-difluorobenzyl)-4-(8-fluoro-5-methylchroman-6-yl)-6-methyl-1H-indol-5-yl)acetic acid]	150
Cc1ccc(Cl)c(C(=O)N2CCc3c2cc(C)c([C@H](OC(C)(C)C)C(=O)O)c3-c2cc(F)c3c(c2C)CCCO3)c1 (atropisomer, axis not shown) [Example 165, (S)-2-(tert-Butoxy)-2-((R)-1-(2-chloro-5-methylbenzoyl)-4-(8-fluoro-5-methylchroman-6-yl)-6-methylindolin-5-yl)acetic acid]	6
Cc1cc(F)cc(C(=O)N2CCc3c2cc(C)c([C@H](OC(C)(C)C)C(=O)O)c3-c2cc(F)c3c(c2C)CCCO3)c1 (atropisomer, axis not shown) [Example 97, (S)-2-(tert-Butoxy)-2-((R)-1-(3-fluoro-5-methylbenzoyl)-4-(8-fluoro-5-methylchroman-6-yl)-6-methylindolin-5-yl)acetic acid]	6
Cc1ccc(-c2c3c(cc(C)c2[C@H](OC(C)(C)C)C(=O)O)N(S(=O)(=O)N2CCCCC2)CC3)cc1 [Example 36, (S)-2-(tert-Butoxy)-2-(6-methyl-1-(piperidin-1-ylsulfonyl)-4-(p-tolyl)indolin-5-yl)acetic acid]	65
Cc1ccc(-c2c3c(cc(C)c2[C@H](OC(C)(C)C)C(=O)O)N(C(=O)c2cc(C)cc(F)c2)CC3)cc1 [Example 32, (S)-2-(tert-Butoxy)-2-(1-(3-fluoro-5-methylbenzov)-6-methyl-4-(p-tolyl)indolin-5-yl)acetic acid]	11
Cc1ccc(-c2c3c(cc(C)c2C(OC(C)(C)C)C(=O)O)N(C(=O)c2cccc(F)c2)CCC3)cc1 (stereo not shown) [Example 214, 2-(tert-Butoxy)-2-(1-(3-fluorobenzoyl)-7-methyl-5-(p-tolyl)-1,2,3,4-tetrahydroquinolin-6-yl)acetic acid]	3560
Cc1ccccc1C(=O)N1CCc2c1cc(C)c([C@H](OC(C)(C)C)C(=O)O)c2-c1ccc2c(c1C)CCCO2 (atropisomer, axis not shown) [Example 188, (S)-2-(tert-Butoxy)-2-((R)-6-methyl-1-(2-methylbenzoyl)-4-(5-methylchroman-6-yl)indolin-5-yl)acetic acid]	5
Cc1cc2c(c(-c3cc(F)c4c(c3C)CCCO4)c1[C@H](OC(C)(C)C)C(=O)O)CCN2C(=O)c1ccccc1C(F)(F)F (atropisomer, axis not shown) [Example 125, (S)-2-(tert-Butoxy)-2-((R)-4-(8-fluoro-5-methylchroman-6-yl)-6-methyl-1-(2-(trifluoromethyl)benzoyl)indolin-5-yl)acetic acid]	5
Cc1cc2c(c(-c3cc(F)c4c(c3C)CCCO4)c1[C@H](OC(C)(C)C)C(=O)O)CCN2C(=O)c1ccc(C(F)(F)F)cc1 (atropisomer, axis not shown) [Example 46, (S)-2-(tert-Butoxy)-2-((R)-4-(8-fluoro-5-methylchroman-6-yl)-6-methyl-1-(4-(trifluoromethyl)benzoyl)indolin-5-yl)acetic acid]	4
Cc1cc(C)cc(C(=O)N2CCc3c2cc(C)c([C@H](OC(C)(C)C)C(=O)O)c3-c2cc(F)c3c(c2C)CCCO3)c1 (atropisomer, axis not shown) [Example 77, (S)-2-(tert-Butoxy)-2-((R)-1-(3,5-dimethylbenzoyl)-4-(8-fluoro-5-methylchroman-6-yl)-6-methylindolin-5-yl)acetic acid]	5
Cc1cc2c(c(-c3cc(F)c4c(c3C)CCCO4)c1[C@H](OC(C)(C)C)C(=O)O)CCN2C(=O)c1cccc2c1CCO2 (atropisomer, axis not shown) [Example 177, (S)-2-(tert-Butoxy)-2-((R)-1-(2,3-dihydrobenzofuran-4-carbonyl)-4-(8-fluoro-5-methylchroman-6-yl)-6-methylindolin-5-yl)acetic acid]	2
Cc1cc2c(c(-c3cc(F)c4c(c3C)CCCO4)c1[C@H](OC(C)(C)C)C(=O)O)CCN2C(=O)c1ccc(F)cc1F (atropisomer, axis not shown) [Example 60, (S)-2-(tert-Butoxy)-2-((R)-1-(2,4-difluorobenzoyl)-4-(8-fluoro-5-methylchroman-6-yl)-6-methylindolin-5-yl)acetic acid]	6
Cc1cc2c(c(-c3cc(F)c4c(c3C)CCCO4)c1[C@H](OC(C)(C)C)C(=O)O)CCN2C(=O)C(C)(C)C (atropisomer, axis not shown) [Example 120, (S)-2-(tert-Butoxy)-2-((R)-4-(8-fluoro-5-methylchroman-6-yl)-6-methyl-1-pivaloylindolin-5-yl)acetic acid]	91
Cc1cccc(C(=O)N2CCc3c2cc(C)c([C@H](OC(C)(C)C)C(=O)O)c3-c2cc(F)c3c(c2C)CCCO3)c1Cl (atropisomer, axis not shown) [Example 135, (S)-2-(tert-Butoxy)-2-((R)-1-(2-chloro-3-methylbenzoyl)-4-(8-fluoro-5-methylchroman-6-yl)-6-methylindolin-5-yl)acetic acid]	4
Cc1ccc(-c2c3c(cc(C)c2[C@H](OC(C)(C)C)C(=O)O)N(C(=O)CC2CCCCC2)CC3)cc1 [Example 25, (S)-2-(tert-Butoxy)-2-(1-(2-cyclohexylacetyl)-6-methyl-4-(p-tolyl)indolin-5-yl)acetic acid]	43
COC(=O)c1cccc(CN2CCCc3c2cc(C)c(C(OC(C)(C)C)C(=O)O)c3-c2ccc(C)cc2)c1 (stereo not shown) [Example 209, 2-(tert-Butoxy)-2-(1-(3-(methoxycarbonyl)benzyl)-7-methyl-5-(p-tolyl)-1,2,3,4-tetrahydroquinolin-6-yl)acetic acid]	1340
COc1ccc(C(=O)N2CCc3c2cc(C)c([C@H](OC(C)(C)C)C(=O)O)c3-c2cc(F)c3c(c2C)CCCO3)cc1F (atropisomer, axis not shown) [Example 74, (S)-2-(tert-butoxy)-2-((R)-1-(3-fluoro-4-methoxybenzoyl)-4-(8-fluoro-5-methylchroman-6-yl)-6-methylindolin-5-yl)acetic acid]	5
Cc1cc2c(c(-c3cc(F)c4c(c3C)CCCO4)c1[C@H](OC(C)(C)C)C(=O)O)CCN2C(=O)c1cc(Cl)ccc1F (atropisomer, axis not shown) [Example 145, (S)-2-(tert-Butoxy)-2-((R)-1-(5-chloro-2-fluorobenzoyl)-4-(8-fluoro-5-methylchroman-6-yl)-6-methylindolin-5-yl)acetic acid]	14
Cc1ccc(-c2c3c(cc(C)c2[C@H](OC(C)(C)C)C(=O)O)N(C(=O)OC(C)(C)C)CC3)cc1 [Example 24, (S)-2-(tert-Butoxy)-2-(1-(tert-butoxycarbonyl)-6-methyl-4-(p-tolyl)indolin-5-yl)acetic acid]	47
Cc1ccc(C(=O)N2CCc3c2cc(C)c([C@H](OC(C)(C)C)C(=O)O)c3-c2cc(C(F)(F)F)c3c(c2C)CCCO3)cn1 (atropisomer, axis not shown) [Example 197, (S)-2-(tert-Butoxy)-2-((R)-6-methyl-4-(5-methyl-8-(trifluoromethyl)chroman-6-yl)-1-(6-methylnicotinoyl)indolin-5-yl)acetic acid]	712
Cc1ccc(-c2c3c(cc(C)c2C(OC(C)(C)C)C(=O)O)N(C(=O)C(=O)N2CCCCC2)CC3)cc1 (stereo not shown) [Example 5, 2-(tert-Butoxy)-2-(6-methyl-1-(2-oxo-2-(piperidin-1-yl)acetyl)-4-(p-tolyl)indolin-5-yl)acetic acid]	343
Cc1ccc(-c2c3c(cc(C)c2C(OC(C)(C)C)C(=O)O)N(C(=O)c2ccc(F)c(F)c2)CC3)cc1 (stereo not shown) [Example 3, 2-(tert-Butoxy)-2-(1-(3,4-difluorobenzoyl)-6-methyl-4-(p-tolyl)indolin-5-yl)acetic acid]	12
COc1ccc(C(=O)N2CCc3c2cc(C)c([C@H](OC(C)(C)C)C(=O)O)c3-c2cc(F)c3c(c2C)CCCO3)c(Cl)c1 (atropisomer, axis not shown) [Example 128, (S)-2-(tert-Butoxy)-2-((R)-1-(2-chloro-4-methoxybenzoyl)-4-(8-fluoro-5-methylchroman-6-yl)-6-methylindolin-5-yl)acetic acid]	5
